ChEMBL document CHEMBL4190372, “Discovery of a Novel Oral Glucocorticoid Receptor Modulator (AZD9567) with Improved Side Effect Profile” (J Med Chem, 2018)
Values after ≈ are worked out from the molar mass of the structure shown.

Tests used:
Glucocorticoid receptor [1] = molecular target: T1, Glucocorticoid receptor (Homo sapiens, UniProt P04150); assay: Displacement of fluormone RED from human full length glucocorticoid receptor after 4 hrs by fluorescence polarization assay
T1 sequence (P04150 whole entry): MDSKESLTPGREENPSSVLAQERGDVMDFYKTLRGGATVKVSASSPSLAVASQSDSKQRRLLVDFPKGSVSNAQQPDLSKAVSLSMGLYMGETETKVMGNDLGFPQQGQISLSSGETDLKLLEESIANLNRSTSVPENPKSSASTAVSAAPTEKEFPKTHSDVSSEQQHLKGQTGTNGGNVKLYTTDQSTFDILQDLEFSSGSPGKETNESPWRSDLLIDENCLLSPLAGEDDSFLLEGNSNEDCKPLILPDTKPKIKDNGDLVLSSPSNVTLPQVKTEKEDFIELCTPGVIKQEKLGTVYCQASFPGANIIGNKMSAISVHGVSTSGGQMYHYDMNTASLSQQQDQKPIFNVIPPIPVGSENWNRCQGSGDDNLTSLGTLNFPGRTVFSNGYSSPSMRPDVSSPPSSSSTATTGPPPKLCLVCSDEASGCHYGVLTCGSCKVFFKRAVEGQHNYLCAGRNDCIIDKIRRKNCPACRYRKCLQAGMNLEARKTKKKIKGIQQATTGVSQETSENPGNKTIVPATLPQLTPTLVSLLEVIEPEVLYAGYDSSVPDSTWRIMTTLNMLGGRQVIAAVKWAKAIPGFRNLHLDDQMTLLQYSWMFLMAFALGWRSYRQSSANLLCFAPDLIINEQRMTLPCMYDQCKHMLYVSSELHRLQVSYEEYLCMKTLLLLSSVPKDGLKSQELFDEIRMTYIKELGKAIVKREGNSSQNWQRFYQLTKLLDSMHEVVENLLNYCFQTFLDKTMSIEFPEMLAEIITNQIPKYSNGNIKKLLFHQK

[2] = Aqueous solubility of the compound; type: physicochemical; settings: aqueous; read-out: solubility
Estrogen receptor = molecular target: T2, Estrogen receptor (Homo sapiens, UniProt P03372); assay: Binding affinity to human ERalpha expressed in Sf9 cells by fluoligand binding-based fluorescence polarization method
T2 sequence (P03372 whole entry): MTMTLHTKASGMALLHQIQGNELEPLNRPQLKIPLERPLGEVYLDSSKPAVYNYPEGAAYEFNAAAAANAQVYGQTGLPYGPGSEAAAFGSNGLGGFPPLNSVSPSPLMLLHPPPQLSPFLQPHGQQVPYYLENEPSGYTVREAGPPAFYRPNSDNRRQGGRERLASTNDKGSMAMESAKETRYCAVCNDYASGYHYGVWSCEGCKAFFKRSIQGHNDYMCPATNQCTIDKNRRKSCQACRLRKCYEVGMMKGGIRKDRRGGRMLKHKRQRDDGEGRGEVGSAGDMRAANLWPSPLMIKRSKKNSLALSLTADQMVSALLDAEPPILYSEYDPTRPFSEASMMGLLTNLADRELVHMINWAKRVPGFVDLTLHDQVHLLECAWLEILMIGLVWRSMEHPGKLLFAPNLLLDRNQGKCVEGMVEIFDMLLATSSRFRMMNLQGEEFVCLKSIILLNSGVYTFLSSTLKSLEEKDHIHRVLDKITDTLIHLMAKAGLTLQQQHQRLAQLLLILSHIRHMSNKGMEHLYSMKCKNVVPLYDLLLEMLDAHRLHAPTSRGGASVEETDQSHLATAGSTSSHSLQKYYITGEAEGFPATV

[3] = Tmax in Han-Wistar rat at 2.1 mg/kg, po; type: ADME, organism-based; settings: in vivo
[4] = Terminal half life in Han-Wistar rat at 0.8 mg/kg, iv; type: ADME, organism-based; settings: in vivo, read-out: beta t1/2 (converted)
[5] = Terminal half life in Han-Wistar rat at 2.1 mg/kg, po; type: ADME, organism-based; settings: in vivo, read-out: beta t1/2 (converted)
[6] = Oral bioavailability in Han-Wistar rat at […]; type: ADME, organism-based; settings: in vivo
[7] = Clearance in Han-Wistar rat at 0.8 mg/kg, iv; type: ADME, organism-based; settings: in vivo
[8] = Oral bioavailability in Beagle dog at 0.5 mg/kg; type: ADME, organism-based, Canis lupus familiaris; settings: in vivo
[9] = Clearance in Beagle dog at 0.5 mg/kg, po; type: ADME, organism-based, Canis lupus familiaris; settings: in vivo
Glucocorticoid receptor [10] = molecular target: T3, Glucocorticoid receptor (Rattus norvegicus, UniProt P06536); assay: Modulation of glucocorticoid receptor in rat whole blood
T3 sequence (P06536 whole entry): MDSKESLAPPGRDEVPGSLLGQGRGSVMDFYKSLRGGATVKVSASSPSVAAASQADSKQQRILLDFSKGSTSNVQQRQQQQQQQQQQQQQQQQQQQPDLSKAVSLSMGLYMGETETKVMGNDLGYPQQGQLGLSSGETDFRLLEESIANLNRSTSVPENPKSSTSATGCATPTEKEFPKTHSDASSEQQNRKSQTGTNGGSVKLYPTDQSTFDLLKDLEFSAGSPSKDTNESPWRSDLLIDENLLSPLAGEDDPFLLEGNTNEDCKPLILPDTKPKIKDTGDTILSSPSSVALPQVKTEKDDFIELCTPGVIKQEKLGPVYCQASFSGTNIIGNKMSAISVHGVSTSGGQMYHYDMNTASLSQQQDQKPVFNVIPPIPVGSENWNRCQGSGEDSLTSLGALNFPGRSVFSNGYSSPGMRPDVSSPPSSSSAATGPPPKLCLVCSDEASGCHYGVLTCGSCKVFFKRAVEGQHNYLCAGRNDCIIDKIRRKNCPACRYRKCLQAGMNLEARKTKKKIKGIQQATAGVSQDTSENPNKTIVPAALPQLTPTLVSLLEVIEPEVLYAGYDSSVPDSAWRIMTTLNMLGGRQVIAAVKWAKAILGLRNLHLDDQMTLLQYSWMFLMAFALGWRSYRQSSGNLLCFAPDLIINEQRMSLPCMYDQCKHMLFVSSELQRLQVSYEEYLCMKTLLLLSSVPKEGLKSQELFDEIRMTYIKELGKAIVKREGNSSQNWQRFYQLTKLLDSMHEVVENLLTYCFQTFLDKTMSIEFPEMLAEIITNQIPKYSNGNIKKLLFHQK

Glucocorticoid receptor [11] = molecular target: T3, Glucocorticoid receptor; assay: Modulation of glucocorticoid receptor in rat plasma
[12] = Ratio of drug level in rat blood to plasma; type: ADME, cell-free; settings: blood and plasma
[13] = Cmax in Han-Wistar rat plasma at 0.8 mg/kg, po; type: ADME, organism-based; design: dose 0.8 mg/kg, route oral
Rattus norvegicus = assay: Antiinflammatory activity in streptococcal cell wall reactivation Lewis rat model assessed as reduction of joint swelling at 0.1 mg/kg administered once daily for 8 days by oral gavage starting 1 day prior to streptococcal cell wall challenge measured during 6 days post challenge relative to control; type: functional; design: scale not given: the % may be the effect or the level left
Glucocorticoid receptor [14] = molecular target: T1, Glucocorticoid receptor
Description: Transactivation activity at glucocorticoid receptor (unknown origin) expressed in human ChaGoK1 cells incubated for 24 hrs by beta-galactosidase reporter gene assay

Glucocorticoid receptor [15] = molecular target: T1, Glucocorticoid receptor; remark: listed apart in the source
Description: Transrepression activity at glucocorticoid receptor (unknown origin) expressed in human ChaGoK1 cells assessed as inhibition of PMA-stimulated gene expression incubated for 24 hrs by beta-galactosidase reporter gene assay

[16] = molecular target: T4, Glucocorticoid receptor (Homo sapiens) (UniProt P04150)
T4 sequence (whole entry): T1 sequence (P04150 whole entry)
Description: Transrepression of GR in human whole blood assessed as inhibition of LPS-induced TNF-alpha release preincubated for 45 mins followed by LPS addition after 18 hrs by AlphaLISA method

IC50 (Glucocorticoid receptor [1]): 3.8 nM
solubility [2]: 55 µM (≈ 27.2 µg/mL)
IC50 (Estrogen receptor): > 100000 nM
Tmax [3]: 2 h
half-life [4]: 2.3 h
half-life [5]: 1.9 h
bioavailability [6]: 52%
clearance [7]: 4.5 mL/min/kg
bioavailability [8]: 48%
CL/F [9]: 3.2 mL/min/kg
IC50 (Glucocorticoid receptor [10]): 19 nM
IC50 (Glucocorticoid receptor [11]): 30 nM
blood plasma ratio [12]: 0.64
Cmax [13]: 2000 nM
EC50 (Glucocorticoid receptor [14]): 11 nM
IC50 (Glucocorticoid receptor [15]): 7 nM
fIC30 [16]: 1.4 nM
Compound: CC(C)[C@H](NC(=O)C(C)(F)F)[C@H](Oc1ccc2c(cnn2-c2ccc(=O)n(C)c2)c1)c1ccccc1 [MIZACORAT]
Activity (Rattus norvegicus): 42%
